The results in this text go back to US10220034B2, “Hepatitis B viral assembly effectors” (Indiana University Research and Technology Corp., priority 2013, dated 2019).

One experiment deals with AD38 cells. The experiment is described as follows: Activity of test compounds on viral production from AD38 cells (qPCR viral load). The format is cell-based, HBV. Also on record: key: (+) depicting meets criteria for significant activity; (++) depicting exceeds criteria. As to conditions: 5 days, supernatant qPCR. The procedure:
AD38 cells grown in a 175 cm flash with Growth Medium (DMEM/F12 (1:1) (cat#SH30023.01, Hyclone, 1× Pen/step (cat#: 30-002-CL, Mediatech, Inc), 10% FBS (cat#: 101, Tissue Culture Biologics), 250 μg/mL G418 (cat#: 30-234-CR, Mediatech, Inc), 1 μg/mL Tetracycline (cat#: T3325, Teknova)) were detached with 0.25% trypsin. Tetracycline-free treatment medium (15 mL DMEM/F12 (1:1) (cat#SH30023.01, Hyclone, 1× Pen/step (cat#: 30-002-CL, Mediatech, Inc), with 2% FBS, Tet-system approved (cat#: 631106, Clontech) were then added to mix and spun at 1300 rpm for 5 min. Pelleted cells were then re-suspended/washed with 50 mL of 1×PBS 2 times and 10 mL treatment medium one time. AD38 cells were then re-suspended with 10 mL of treatment medium and counted. Wells of a collagen coated 96-well NUNC microtiter plate were seeded at 50,000/well in 180 μL of treatment medium, and 20 μL of either 10% DMSO (Control) or a 10× solution of test compound in 10% DMSO in treatment media was added for as final compound concentration 1, 3, or 10 μM (1.0% final [DMSO]) and plates were incubated for 5 days at 37° C.
Subsequently viral load production was assayed by quantitative PCR of the core sequence. Briefly, 5 μL of clarified supernatant was added to a PCR reaction mixture that contained forward primers HBV-f 5′-[…]-3′, Reverse primers HBV-r 5′-[…]-3′ and Fluorescent TaqMan™ Probes HBV-probe 5′-FAM/[…]/ZEN/[…]/31ABkFQ-3′ in Quanta Biosciences PerfeCTa® qPCR Toughmix®, and was subsequently on an Applied Biosystems VIIA7 in a final volume of 20 μL. The PCR mixture was incubated at 45° C. for 5 minutes, then 95° C. for 10 min, followed by 40 cycles of 10 seconds at 95° C. and 20 seconds at 60° C. Viral load was quantitated against known standards by using ViiA™ 7 Software. Viral load in the supernatant from wells with treated cells were compared against viral load in supernatant from DMSO control wells (≥3 per plate). In Table 4, concentrations of test compound causing reductions in viral load greater than at least 3 standard deviations from the DMSO controls across all plates were considered active, with (+) depicting meets criteria for significant activity, and (++) depicting exceeds criteria.
Background: Quantitative PCR measures a nucleic acid by following its amplification.

In another experiment the test system is HBV Cp. Kind of experiment: Capsid assembly assay (fluorescence quenching). Particulars: 10 μM compound, control reactions with no drug show 25±5% assembly.

Regarding `Cc1ccc(Nc2cc(C)nc(N3CCN(S(=O)(=O)c4ccc(C)cc4)CC3)n2)cc1` [compound 1], the “reduction in viral load vs DMSO controls” value with AD38 cells (test concentration 3 μM) and with AD38 cells (test concentration 10 μM) was “++” in each case. Also, the “% Capsid formation at 24 h (10 μM)” value with HBV Cp came out at 95%.
Regarding `Cc1ccc(Nc2cc(C)nc(N3CCN(S(=O)(=O)c4ccc(OC(F)(F)F)cc4)CC3)n2)cc1` [compound 2], the “% Capsid formation at 24 h (10 μM)” value with HBV Cp was determined as 83%.
`Cc1ccc(Nc2cc(C)nc(N3CCN(S(=O)(=O)c4ccc(Cl)cc4)CC3)n2)cc1` [compound 3]: the “reduction in viral load vs DMSO controls” value in the experiment with AD38 cells (test concentration 1 μM), in the experiment with AD38 cells (test concentration 3 μM) and in the experiment with AD38 cells (test concentration 10 μM) was “++” throughout. Besides, in the experiment with HBV Cp, the “% Capsid formation at 24 h (10 μM)” value is 94%.
On to `Cc1ccc(Nc2cc(C)nc(N3CCN(S(=O)(=O)c4ccc(O)cc4)CC3)n2)cc1` [compound 4], for which the “% Capsid formation at 24 h (10 μM)” value with HBV Cp was 99%.
For the compound `CCc1ccc(S(=O)(=O)N2CCN(c3nc(C)cc(Nc4ccc(C)cc4)n3)CC2)cc1` [compound 5], the “reduction in viral load vs DMSO controls” value in the experiment with AD38 cells (test concentration 3 μM) and with AD38 cells (test concentration 10 μM) was “++” each time. In addition, the “% Capsid formation at 24 h (10 μM)” value with HBV Cp amounted to 91%.
Regarding `Cc1ccc(Nc2cc(C)nc(N3CCN(S(=O)(=O)c4ccc(C(C)C)cc4)CC3)n2)cc1` [compound 6], the “reduction in viral load vs DMSO controls” value with AD38 cells (test concentration 3 μM) and in the experiment on AD38 cells (test concentration 10 μM) was “++” throughout. In the experiment on HBV Cp, the “% Capsid formation at 24 h (10 μM)” value stood at 92%.
`Cc1ccc(Nc2cc(C)nc(N3CCN(S(=O)(=O)c4cccc(C)c4)CC3)n2)cc1` [compound 7]: the “reduction in viral load vs DMSO controls” value in the experiment with AD38 cells (test concentration 1 μM) is given as “+”; in the experiment with AD38 cells (test concentration 3 μM), “++”; in the experiment on AD38 cells (test concentration 10 μM), “++”. In addition, the “% Capsid formation at 24 h (10 μM)” value in the experiment on HBV Cp is 79%.
`CCOc1ccc(S(=O)(=O)N2CCN(c3nc(C)cc(Nc4ccc(C)cc4)n3)CC2)cc1` [compound 8]: the “reduction in viral load vs DMSO controls” value in the experiment with AD38 cells (test concentration 3 μM) and in the experiment with AD38 cells (test concentration 10 μM) was “++” throughout. Besides, in the experiment with HBV Cp, the “% Capsid formation at 24 h (10 μM)” value came out at 98%.
As to `CCCCOc1ccc(S(=O)(=O)N2CCN(c3nc(C)cc(Nc4ccc(C)cc4)n3)CC2)cc1` [compound 9], the “% Capsid formation at 24 h (10 μM)” value in the experiment on HBV Cp was 93%.
In the case of `CC(=O)Nc1ccc(S(=O)(=O)N2CCN(c3nc(C)cc(Nc4ccc(C)cc4)n3)CC2)cc1` [compound 10], the “reduction in viral load vs DMSO controls” value in the experiment with AD38 cells (test concentration 1 μM) was “+”; in the experiment with AD38 cells (test concentration 3 μM), “++”; with AD38 cells (test concentration 10 μM), “++”. The “% Capsid formation at 24 h (10 μM)” value in the experiment on HBV Cp is reported as 96%.
`COc1ccc(S(=O)(=O)N2CCN(c3nc(C)cc(Nc4ccc(C)cc4)n3)CC2)cc1` [compound 11]: the “reduction in viral load vs DMSO controls” value in the experiment with AD38 cells (test concentration 3 μM) and in the experiment on AD38 cells (test concentration 10 μM) was “++” each time. Also, the “% Capsid formation at 24 h (10 μM)” value with HBV Cp turned out to be 89%.
Turning to `Cc1ccc(Nc2cc(C)nc(N3CCN(S(=O)(=O)c4ccccc4)CC3)n2)cc1` [compound 12], the “% Capsid formation at 24 h (10 μM)” value in the experiment with HBV Cp was found to be 73%.
As for `Cc1ccc(Nc2cc(C)nc(N3CCN(S(=O)(=O)c4ccc(F)cc4)CC3)n2)cc1` [compound 13], in the experiment on HBV Cp, the “% Capsid formation at 24 h (10 μM)” value is 60%.
`Cc1ccc(Nc2cc(C)nc(N3CCN(S(=O)(=O)c4ccccc4F)CC3)n2)cc1` [compound 14]: the “% Capsid formation at 24 h (10 μM)” value in the experiment on HBV Cp came out at 67%.
As to `Cc1ccc(Nc2cc(C)nc(N3CCN(S(=O)(=O)c4cccc(F)c4)CC3)n2)cc1` [compound 15], the “reduction in viral load vs DMSO controls” value in the experiment with AD38 cells (test concentration 3 μM) and with AD38 cells (test concentration 10 μM) was “++” in each case. Besides, in the experiment with HBV Cp, the “% Capsid formation at 24 h (10 μM)” value is 76%.
Take `COc1cccc(S(=O)(=O)N2CCN(c3nc(C)cc(Nc4ccc(C)cc4)n3)CC2)c1` [compound 16]: the “reduction in viral load vs DMSO controls” value in the experiment with AD38 cells (test concentration 1 μM), in the experiment on AD38 cells (test concentration 3 μM) and in the experiment on AD38 cells (test concentration 10 μM) was “++” each time. The “% Capsid formation at 24 h (10 μM)” value with HBV Cp is 95%.
Regarding `Cc1ccc(Nc2cc(C)nc(N3CCN(S(=O)(=O)c4ccc5ccccc5c4)CC3)n2)cc1` [compound 17], the “% Capsid formation at 24 h (10 μM)” value in the experiment on HBV Cp came to 70%.
Take `COc1ccc(S(=O)(=O)N2CCN(c3nc(C)cc(Nc4ccc(C)cc4)n3)CC2)cc1OC` [compound 18]: the “reduction in viral load vs DMSO controls” value in the experiment with AD38 cells (test concentration 3 μM) and in the experiment on AD38 cells (test concentration 10 μM) was “++” each time. Further, in the experiment on HBV Cp, the “% Capsid formation at 24 h (10 μM)” value is on record as 71%.
With `Cc1ccc(Nc2cc(C)nc(N3CCN(S(=O)(=O)c4ccc5cc(N(C)C)ccc5c4)CC3)n2)cc1` [compound 19], in the experiment on HBV Cp, the “% Capsid formation at 24 h (10 μM)” value is 83%.
In the case of `CCCCc1ccc(S(=O)(=O)N2CCN(c3nc(C)cc(Nc4ccc(C)cc4)n3)CC2)cc1` [compound 20], the “% Capsid formation at 24 h (10 μM)” value in the experiment on HBV Cp is on record as 90%.
The same measure, in the same setting: under `CC(C)c1cc(Nc2ccc(F)cc2)nc(N2CCN(S(=O)(=O)c3ccccc3)CC2)n1` [compound 21] stands 71%; under `Cc1ccc(S(=O)(=O)N2CCN(c3nc(Nc4ccc(F)cc4)cc(C(C)C)n3)CC2)cc1` [compound 22], 80%.
Take `Cc1ccc(Nc2cc(C)nc(N3CCN(S(=O)(=O)c4ccc(N(C)C)cc4)CC3)n2)cc1` [compound 23]: the “reduction in viral load vs DMSO controls” value with AD38 cells (test concentration 1 μM) is given as “+”; in the experiment on AD38 cells (test concentration 3 μM) it was “++”; with AD38 cells (test concentration 10 μM), “++”. Moreover, in the experiment with HBV Cp, the “% Capsid formation at 24 h (10 μM)” value is on record as 88%.
Take `CNc1ccc(S(=O)(=O)N2CCN(c3nc(C)cc(Nc4ccc(C)cc4)n3)CC2)cc1` [compound 24]: the “reduction in viral load vs DMSO controls” value in the experiment on AD38 cells (test concentration 3 μM) and in the experiment with AD38 cells (test concentration 10 μM) was “++” each time. For the same compound, the “% Capsid formation at 24 h (10 μM)” value in the experiment with HBV Cp came out at 96%.
For the compound `Cc1ccc(Nc2cc(C)nc(N3CCN(S(=O)(=O)c4ccc(N)cc4)CC3)n2)cc1` [compound 26], the “reduction in viral load vs DMSO controls” value in the experiment on AD38 cells (test concentration 3 μM) and with AD38 cells (test concentration 10 μM) was “++” in each case. Further, the “% Capsid formation at 24 h (10 μM)” value in the experiment on HBV Cp was found to be 96%.
Consider `Cc1ccc(Nc2cc(C)nc(N3CCN(S(=O)(=O)c4ccc(OC(C)(C)C)cc4)CC3)n2)cc1` [compound 27], for which the “reduction in viral load vs DMSO controls” value in the experiment on AD38 cells (test concentration 3 μM) and in the experiment with AD38 cells (test concentration 10 μM) was “++” each time. For the same compound, the “% Capsid formation at 24 h (10 μM)” value in the experiment on HBV Cp is recorded as 84%.
Turning to `COc1ccc(S(=O)(=O)N2CCN(c3nc(Nc4ccc(C)cc4)cc(C(C)C)n3)CC2)cc1` [compound 30], in the experiment with HBV Cp, the “% Capsid formation at 24 h (10 μM)” value came to 87%.
Still for that read-out and setting: to `COc1ccc(S(=O)(=O)N2CCN(c3nc(C)cc(Nc4ccc(OC(F)(F)F)cc4)n3)CC2)cc1` [compound 36] belongs 78%.
Same read-out and setting: under `COc1ccc(S(=O)(=O)N2CCN(c3nc(C)cc(Nc4ccc(F)cc4)n3)CC2)cc1` [compound 38] stands 75%.
The same measure, in the same setting: to `COc1ccc(S(=O)(=O)N2CCN(c3nc(C)cc(Nc4ccccc4)n3)CC2)cc1` [compound 39] belongs 56%; to `COc1ccc(Nc2cc(C)nc(N3CCN(S(=O)(=O)c4ccc(OC)cc4)CC3)n2)cc1` [compound 41], 84%.
Turning to `COc1ccc(Nc2cc(C)nc(N3CCN(S(=O)(=O)c4ccc(OC)cc4)CC3)n2)cc1` [compound 43], the “% Capsid formation at 24 h (10 μM)” value in the experiment with HBV Cp is listed as 97%.
Take `COc1cccc(S(=O)(=O)N2CCN(c3nc(C)cc(Nc4ccc(F)cc4)n3)CC2)c1` [compound 44]: the “% Capsid formation at 24 h (10 μM)” value in the experiment on HBV Cp is 92%.
The same measure, in the same setting: under `COc1ccc(Nc2cc(C)nc(N3CCN(S(=O)(=O)c4ccc(OC)c(OC)c4)CC3)n2)cc1` [compound 45] stands 87%.
